In patent US12599672B2, “KRAS proteolysis targeting chimeras” (PAQ Therapeutics Inc., priority 2023, dated 2026):

How the values were obtained:
KRAS G12D = target: T1, KRAS G12D (Homo sapiens, UniProt P01116, G12D); test: KRAS G12D HiBit assay; type: cell-based; settings: AsPc-1-KRAS (G12D)-HiBit-KI cell, compound treatment for 24 hours, absolute DC50
T1 construct: AsPc-1-KRAS (G12D)-HiBit-KI cell (Pharmaron); host or cells: AsPc-1-KRAS (G12D)-HiBit-KI cells (HiBiT knock-in at the endogenous KRAS locus)
Summary of the method: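 Cells were treated for 24 h with compounds in a 3-fold, 10-point dilution series from a 0.3 mM DMSO stock, then equilibrated 15 min at room temperature. KRAS G12D HiBiT levels were read by luminescence after lytic Nano-Glo HiBiT reagent with LgBiT; inhibition calculated relative to 0.1% DMSO high control.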

KRAS G12V = target: T2, KRAS G12V (Homo sapiens, UniProt P01116, G12V); test: KRAS G12V HiBit assay; type: cell-based; settings: SW620-KRAS (G12V)-HiBit-KI cells, compound treatment for 24 hours, class symbols
T2 construct: SW620-KRAS (G12V)-HiBit-KI cell (Pharmaron); host or cells: SW620-KRAS (G12V)-HiBit-KI cells (HiBiT knock-in at the endogenous KRAS locus)
Summary of the method: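 HiBiT-tagged KRAS G12V cells treated 24 h with compound in a 3-fold, 10-point series (0.3 mM DMSO stock); lytic HiBiT reagent with LgBiT added after 15 min room-temperature equilibration. Degradation calculated against 0.1% DMSO high control.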

[1] = numeric bounds given in place of class symbols

T2 sequence (P01116 1-188 isoform P01116-2 G12V): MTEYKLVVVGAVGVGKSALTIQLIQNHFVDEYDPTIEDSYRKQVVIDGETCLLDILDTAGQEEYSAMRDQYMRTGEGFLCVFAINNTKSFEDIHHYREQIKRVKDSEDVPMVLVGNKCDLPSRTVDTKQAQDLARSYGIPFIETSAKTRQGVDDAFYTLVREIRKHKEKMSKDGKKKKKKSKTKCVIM
T1 sequence (P01116 1-188 isoform P01116-2 G12D): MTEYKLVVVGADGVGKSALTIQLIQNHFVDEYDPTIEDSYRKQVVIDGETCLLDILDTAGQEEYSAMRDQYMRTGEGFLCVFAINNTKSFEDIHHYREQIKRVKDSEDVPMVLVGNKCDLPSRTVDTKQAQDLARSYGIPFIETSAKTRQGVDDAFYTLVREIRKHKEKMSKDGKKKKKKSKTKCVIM

DC50 (KRAS G12D; class symbols) | DC50 (KRAS G12V) | DC50 (KRAS G12D; [1]) | Structure (SMILES)
< 100 nM | < 10 nM | – | CCc1c(F)ccc2cc(O)cc(-c3ncc4c(N5CCC[C@@](C)(O)C5)nc(OC[C@@]56CCCN5[C@H](COC(=O)N5CCC(N7CCC(Oc8ccc9c(c8)n(C)c(=O)n9C8CCC(=O)NC8=O)CC7)CC5)CC6)nc4c3F)c12 (stereo partly drawn) [Compound 439, ((3S,7aS)-7a-(((7-(8-ethyl-7-fluoro-3-hydroxynaphthalen-1-yl)-8-fluoro-4-((R)-3-hydroxy-3-methylpiperidin-1-yl)pyrido[4,3-d]pyrimidin-2-yl)oxy)methyl)hexahydro-1H-pyrrolizin-3-yl)methyl 4-((1-(2,6-dioxopiperidin-3-yl)-3-methyl-2-oxo-2,3-dihydro-1H-benzo[d]imidazol-5-yl)oxy)-[1,4′-bipiperidine]-1′-carboxylate]
– | 10 to 100 nM | > 100 nM | CCc1c(F)ccc2cc(O)cc(-c3ncc4c(N5CCC[C@@](C)(O)C5)nc(OCC56CCCN5C(COCCCN5CCC(c7ccc8c(c7)n(C)c(=O)n8C7CCC(=O)NC7=O)CC5)CC6)nc4c3F)c12 (stereo partly drawn) [Compound 449, 3-(5-(1-(3-((7a-(((7-(8-ethyl-7-fluoro-3-hydroxynaphthalen-1-yl)-8-fluoro-4-((R)-3-hydroxy-3-methylpiperidin-1-yl)pyrido[4,3-d]pyrimidin-2-yl)oxy)methyl)hexahydro-1H-pyrrolizin-3-yl)methoxy)propyl)piperidin-4-yl)-3-methyl-2-oxo-2,3-dihydro-1H-benzo[d]imidazol-1-yl)piperidine-2,6-dione]
< 100 nM | < 10 nM | – | CCc1c(F)ccc2cc(O)cc(-c3ncc4c(N5CCC[C@@](C)(O)C5)nc(OC[C@@]56CCCN5[C@H](COC(=O)N5CCC7(CC5)CN(C5CCN(c8ccc9c(c8)n(C)c(=O)n9C8CCC(=O)NC8=O)CC5)C7)CC6)nc4c3F)c12 (stereo partly drawn) [Compound 463, ((3S,7aS)-7a-(((7-(8-ethyl-7-fluoro-3-hydroxynaphthalen-1-yl)-8-fluoro-4-((R)-3-hydroxy-3-methylpiperidin-1-yl)pyrido[4,3-d]pyrimidin-2-yl)oxy)methyl)hexahydro-1H-pyrrolizin-3-yl)methyl 2-(1-(1-(2,6-dioxopiperidin-3-yl)-3-methyl-2-oxo-2,3-dihydro-1H-benzo[d]imidazol-5-yl)piperidin-4-yl)-2,7-diazaspiro[3.5]nonane-7-carboxylate]
< 100 nM | 10 to 100 nM | – | CCc1c(F)ccc2cc(O)cc(-c3ncc4c(N5CCC[C@@](C)(O)C5)nc(OC[C@@]56CCCN5[C@H](CCCN5CCC7(CC5)CC(N5CCC(c8ccc9c(c8)n(C)c(=O)n9C8CCC(=O)NC8=O)CC5)C7)CC6)nc4c3F)c12 (stereo partly drawn) [Compound 472, 3-(5-(1-(7-(3-((3R,7aS)-7a-(((7-(8-Ethyl-7-fluoro-3-hydroxynaphthalen-1-yl)-8-fluoro-4-((R)-3-hydroxy-3-methylpiperidin-1-yl)pyrido[4,3-d]pyrimidin-2-yl)oxy)methyl)hexahydro-1H-pyrrolizin-3-yl)propyl)-7-azaspiro[3.5]nonan-2-yl)piperidin-4-yl)-3-methyl-2-oxo-2,3-dihydro-1H-benzo[d]imidazol-1-yl) piperidine-2,6-dione]

Second part, the compound before the results:

Structure (SMILES) | DC50 (KRAS G12D; class symbols) | DC50 (KRAS G12V) | DC50 (KRAS G12D; [1])
CCc1c(F)ccc2cc(O)cc(-c3ncc4c(N5CCC[C@@](C)(O)C5)nc(OC[C@@]56CCCN5[C@H](COC(=O)N5CCC(CN7CC8(CC(c9ccc%10c(c9)n(C)c(=O)n%10C9CCC(=O)NC9=O)C8)C7)CC5)CC6)nc4c3F)c12 (stereo partly drawn) [Compound 366, ((3S,7aS)-7a-(((7-(8-ethyl-7-fluoro-3-hydroxynaphthalen-1-yl)-8-fluoro-4-((R)-3-hydroxy-3-methylpiperidin-1-yl)pyrido[4,3-d]pyrimidin-2-yl)oxy)methyl)hexahydro-1H-pyrrolizin-3-yl)methyl 4-((6-(1-(2,6-dioxopiperidin-3-yl)-3-methyl-2-oxo-2,3-dihydro-1H-benzo[d]imidazol-5-yl)-2-azaspiro[3.3]heptan-2-yl)methyl)piperidine-1-carboxylate] | < 100 nM | 10 to 100 nM | –
C#Cc1c(F)ccc2cc(O)cc(-c3ncc4c(N5CCC[C@@](C)(O)C5)nc(OC[C@@]56CCCN5[C@H](COC(=O)N5CCN(CC#CCOc7cccc8c7n(C)c(=O)n8C7CCC(=O)NC7=O)CC5)CC6)nc4c3F)c12 (stereo partly drawn) [Compound 376, ((3S,7aS)-7a-(((7-(8-ethynyl-7-fluoro-3-hydroxynaphthalen-1-yl)-8-fluoro-4-((R)-3-hydroxy-3-methylpiperidin-1-yl)pyrido[4,3-d]pyrimidin-2-yl)oxy)methyl)hexahydro-1H-pyrrolizin-3-yl)methyl 4-(4-((1-(2,6-dioxopiperidin-3-yl)-3-methyl-2-oxo-2,3-dihydro-1H-benzo[d]imidazol-4-yl)oxy)but-2-yn-1-yl)piperazine-1-carboxylate] | – | > 100 nM | > 100 nM
CCc1c(F)ccc2cc(O)cc(-c3ncc4c(N5CCC[C@@](C)(O)C5)nc(OC[C@@]56CCCN5[C@H](COC(=O)N5CCC(CN7C8CCC7CC(c7ccc9c(c7)n(C)c(=O)n9C7CCC(=O)NC7=O)C8)CC5)CC6)nc4c3F)c12 (stereo partly drawn) [Compound 393, ((3S,7aS)-7a-(((7-(8-ethyl-7-fluoro-3-hydroxynaphthalen-1-yl)-8-fluoro-4-((R)-3-hydroxy-3-methylpiperidin-1-yl)pyrido[4,3-d]pyrimidin-2-yl)oxy)methyl)hexahydro-1H-pyrrolizin-3-yl)methyl 4-((3-(1-(2,6-dioxopiperidin-3-yl)-3-methyl-2-oxo-2,3-dihydro-1H-benzo[d]imidazol-5-yl)-8-azabicyclo[3.2.1]octan-8-yl)methyl)piperidine-1-carboxylate] | < 100 nM | 10 to 100 nM | –
CCc1c(F)ccc2cc(O)cc(-c3ncc4c(N5CCC[C@@](C)(O)C5)nc(OC[C@@]56CCCN5[C@H](COC(=O)N5CCC(CN7CC(c8ccc9c(c8)n(C)c(=O)n9C8CCC(=O)NC8=O)C7)CC5)CC6)nc4c3F)c12 (stereo partly drawn) [Compound 395, ((3S,7aS)-7a-(((7-(8-ethyl-7-fluoro-3-hydroxynaphthalen-1-yl)-8-fluoro-4-((R)-3-hydroxy-3-methylpiperidin-1-yl)pyrido[4,3-d]pyrimidin-2-yl)oxy)methyl)hexahydro-1H-pyrrolizin-3-yl)methyl 4-((3-(1-(2,6-dioxopiperidin-3-yl)-3-methyl-2-oxo-2,3-dihydro-1H-benzo[d]imidazol-5-yl)azetidin-1-yl)methyl)piperidine-1-carboxylate] | < 100 nM | 10 to 100 nM | –
CCc1c(F)ccc2cc(O)cc(-c3ncc4c(N5CCC[C@@](C)(O)C5)nc(OC[C@@]56CCCN5[C@H](COC(=O)N5CC7CC(C5)C7CN5CCC(c7ccc8c(c7)n(C)c(=O)n8C7CCC(=O)NC7=O)CC5)CC6)nc4c3F)c12 (stereo partly drawn) [Compound 400, ((3S,7aS)-7a-(((7-(8-ethyl-7-fluoro-3-hydroxynaphthalen-1-yl)-8-fluoro-4-((R)-3-hydroxy-3-methylpiperidin-1-yl)pyrido[4,3-d]pyrimidin-2-yl)oxy)methyl)hexahydro-1H-pyrrolizin-3-yl)methyl 6-((4-(1-(2,6-dioxopiperidin-3-yl)-3-methyl-2-oxo-2,3-dihydro-1H-benzo[d]imidazol-5-yl)piperidin-1-yl)methyl)-3-azabicyclo[3.1.1]heptane-3-carboxylate] | < 100 nM | < 10 nM | –
CCc1c(F)ccc2cc(O)cc(-c3ncc4c(N5CCC[C@@](C)(O)C5)nc(OC[C@@]56CCCN5[C@H](COC(=O)N5CC7C(CN8CCC(c9ccc%10c(c9)n(C)c(=O)n%10C9CCC(=O)NC9=O)CC8)C7C5)CC6)nc4c3F)c12 (stereo partly drawn) [Compound 401, ((3S,7aS)-7a-(((7-(8-ethyl-7-fluoro-3-hydroxynaphthalen-1-yl)-8-fluoro-4-((R)-3-hydroxy-3-methylpiperidin-1-yl)pyrido[4,3-d]pyrimidin-2-yl)oxy)methyl)hexahydro-1H-pyrrolizin-3-yl)methyl 6-((4-(1-(2,6-dioxopiperidin-3-yl)-3-methyl-2-oxo-2,3-dihydro-1H-benzo[d]imidazol-5-yl)piperidin-1-yl)methyl)-3-azabicyclo[3.1.0]hexane-3-carboxylate] | < 100 nM | 10 to 100 nM | –
CCc1c(F)ccc2cc(O)cc(-c3ncc4c(N5CCC[C@@](C)(O)C5)nc(OC[C@@]56CCCN5[C@H](COC(=O)N5CCC(C#Cc7cccc8c7n(C)c(=O)n8C7CCC(=O)NC7=O)CC5)CC6)nc4c3F)c12 (stereo partly drawn) [Compound 403, ((3S,7aS)-7a-(((7-(8-ethyl-7-fluoro-3-hydroxynaphthalen-1-yl)-8-fluoro-4-((R)-3-hydroxy-3-methylpiperidin-1-yl)pyrido[4,3-d]pyrimidin-2-yl)oxy)methyl)hexahydro-1H-pyrrolizin-3-yl)methyl 4-((1-(2,6-dioxopiperidin-3-yl)-3-methyl-2-oxo-2,3-dihydro-1H-benzo[d]imidazol-4-yl)ethynyl)piperidine-1-carboxylate] | – | > 100 nM | > 100 nM
